Source: the NIST ThermoML archive (doi:10.1016/j.jct.2013.10.018)
± gives the expanded uncertainty stated by the source.

Details: 101.33 kPa, Liquid; for speed of sound: Sing-around technique in a fixed-path interferometer; for mass density: Vibrating tube method

Compound CCCCCCCCCCO [decan-1-ol] has a speed of sound (298.15 K) of 1380 ± 3 m/s, a mass density (298.15 K) of 826.36 ± 0.24 kg/m3 and a speed of sound (303.15 K) of 1363 ± 3 m/s. For the same compound, the mass density (303.15 K) was 822.88 ± 0.24 kg/m3, the speed of sound (308.15 K) was 1346 ± 3 m/s and the mass density (308.15 K) was 819.43 ± 0.24 kg/m3. The speed of sound (313.15 K) was 1329 ± 3 m/s, the mass density (313.15 K) was 815.97 ± 0.24 kg/m3 and the speed of sound (318.15 K) was 1312 ± 3 m/s. For the same compound, the mass density (318.15 K) was 812.49 ± 0.24 kg/m3, the speed of sound (323.15 K) was 1296 ± 3 m/s and the mass density (323.15 K) was 809.03 ± 0.24 kg/m3.
CCCCCCCCO [octan-1-ol] showed a speed of sound (298.15 K) of 1349 ± 3 m/s, a mass density (298.15 K) of 821.74 ± 0.26 kg/m3 and a speed of sound (303.15 K) of 1332 ± 3 m/s. It also gave a mass density (303.15 K) of 818.26 ± 0.26 kg/m3, a speed of sound (308.15 K) of 1315 ± 3 m/s and a mass density (308.15 K) of 814.76 ± 0.26 kg/m3. For the same compound, the speed of sound (313.15 K) was 1299 ± 3 m/s, the mass density (313.15 K) was 811.24 ± 0.26 kg/m3 and the speed of sound (318.15 K) was 1282 ± 3 m/s. For the same compound, the mass density (318.15 K) was 807.69 ± 0.26 kg/m3, the speed of sound (323.15 K) was 1265 ± 3 m/s and the mass density (323.15 K) was 804.12 ± 0.26 kg/m3.
